From publication PMC2806525, “Proteinase-activated receptor-2 mediated inhibition of TNFα-stimulated JNK activation — A novel paradigm for Gq/11 linked GPCRs” (Cellular Signalling, 2010)
Entries after “also recorded” stand apart in the source; their conditions may differ.

Tests used:
β2 [1] = conditions: ref [34]; cited from earlier work
Text: (§1) Thus, we can discern two agonist-mediated directed events which relate to the activation of JNK. This type of m ...

β2 [2] = conditions: ref [34]; cited from earlier work; remark: listed apart in the source
human PAR2 [3] = target: T1, human PAR2 (Homo sapiens, UniProt P55085); assay: TNFα-stimulated JNK activity (in vitro c-Jun phosphorylation), PAR2 agonist pre-incubation, PAR2 NCTC2544 cells (clone G); assay type: cell-based; conditions: pre-incubation 30 min, TNFα 10 ng/ml 30 min
T1 construct: expressed in transfected cells
T1 sequence (P55085 26-397): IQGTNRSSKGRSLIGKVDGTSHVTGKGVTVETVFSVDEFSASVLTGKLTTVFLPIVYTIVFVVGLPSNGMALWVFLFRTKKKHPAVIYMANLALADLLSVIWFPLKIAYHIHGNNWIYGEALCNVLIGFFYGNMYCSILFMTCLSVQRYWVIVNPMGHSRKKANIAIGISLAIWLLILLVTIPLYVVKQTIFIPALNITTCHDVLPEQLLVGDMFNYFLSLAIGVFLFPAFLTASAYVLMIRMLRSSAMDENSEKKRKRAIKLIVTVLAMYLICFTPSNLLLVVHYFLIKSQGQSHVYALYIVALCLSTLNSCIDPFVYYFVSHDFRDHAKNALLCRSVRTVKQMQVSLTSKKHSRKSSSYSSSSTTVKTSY
Procedure: (§2) Human skin epithelial cells NCTC2544 were maintained in M199 medium with Earl's salt supplement, 10% (v/v) foetal calf serum, L-glutamine (27 µg/ml), penicillin (250 U/ml), and streptomycin (25 mg/ml). NCTC2544 cells stably expressing human PAR2 (clone G) were maintained in complete M199 medium containing 400 μg/ml of Geneticin for selection pressure and passaged using Versene (2% EDTA/PBS). EAhy-926 cells were produced by hybridizing human umbilical vein endothelial cells (HUVECs) with the epithelial cell line A549 [27] and maintained in Dulbecco's Modified Eagle's Medium (DMEM) supplemented with 10% foetal calf serum (FCS), hypoxanthine/aminopterin/thymidine (HAT supplement), penicillin (250 U/ml) and streptomycin (25 mg/ml), and cells were passaged using Versene.
To measure JNK activity, cells were stimulated as appropriate and the reaction terminated by rapid aspiration and the addition of ice-cold PBS. […] Phosphorylation of GST-c-Jun was then determined by autoradiography. […]
(§3) Fig. 1 PAR2 activation mediates inhibition of TNFα-stimulated JNK activity and phosphorylation in PAR2 NCTC2544 cells. […] Samples were assessed for JNK activity (Panel A) or phospho-JNK levels (Panel C) as outlined in the Methods section. Gels from JNK assays were quantified (Panel B). Each value represents the mean ± s.e.m from at least 4 experiments and data was quantified by densitometry. ⁎P < 0.05, ⁎⁎P < 0.01 compared to TNFα alone.
Fig. 4 Concentration response effects of PAR2 peptides for activation of JNK and inhibition of TNFα-stimulated JNK. PAR2 expressing NCTC2544 cells (clone G) were incubated with increasing concentrations of SLIGKV-OH or 2f-LIGKV-OH for 30 min and assayed for JNK activity (Panel B) or stimulated for a further 30 min with TNFα (+) before JNK activity was assessed (Panel A). Samples were assessed for JNK activity as outlined in the Methods section. Gels from JNK assays were quantified (Panel C). Each value represents the mean ± s.e.m from at least 4 experiments and data was quantified by densitometry.

human PAR2 [4] = target: T1, human PAR2; assay: TNFα-stimulated JNK phosphorylation (Western blot), PAR2 NCTC2544 cells (clone G); assay type: cell-based; conditions: pre-incubation 30 min, TNFα 10 ng/ml 30 min
Procedure: as §2
(§4) Proteins were separated by 10% SDS–PAGE and transferred onto nitrocellulose. […]
as §3

human PAR2 [5] = target: T1, human PAR2; conditions: ref [17]; cited from earlier work
Text: as §1

TNFR1/TRADD = TNFR1/TRADD complex formation (TNFR1 immuno-precipitation, TRADD immuno-blot), PAR2 expressing cells; assay type: cell-based, human; conditions: TNFα 10 ng/ml 30 min, versus basal
Procedure: as §2
Proteins were separated by 10% SDS–PAGE and transferred onto nitrocellulose. The membranes were blocked for non-specific binding for 2 h in 2% BSA (w/v) diluted in NATT buffer (50 mM Tris–HCl, 150 mM NaCl, 0.2% (v/v) Tween-20). The blots were then incubated overnight with 50 ng/ml primary antibody diluted in 0.2% BSA (w/v) in NATT buffer. The blots were washed with NATT buffer for 90 min and incubated with HRP-conjugated secondary antibody (20 ng/ml in 0.2% BSA (w/v) diluted in NATT buffer) for 2 h. After a further 90 min wash, the blots were subjected to ECL reagent and exposed to Kodak X-ray film.
(§5) For immuno-precipitation of TNFR1, equal amounts of pre-cleared cell lysates were incubated in Tris–HCl buffer, pH 7.4, containing 50 mM NaCl, 1 mM EDTA, 1 mM EGTA, 1% (w/v) Triton X-100, and 0.5% (w/v) Nonidet P-40, with 2 μg TNFR1 antibody, pre-coupled to protein G, for 3 h. Lysates were recovered by sequential washes in solubilisation buffer and in the same buffer lacking detergents. Precipitates were assessed for TRADD or RIP content using Western blotting.
Fig. 7 PAR2 mediated TNFR1 adapter protein disruption in PAR2 expressing cells. In Panel A, cells were pre-treated with peptide (100 μM) or vehicle prior to stimulation with TNFα (10 ng/ml) for 30 min. Lysates were immuno-precipitated for TNFR1 and immuno-blotted for TRADD and/or RIP, as outlined in the Methods section. In Panel B cells were pre-treated with 100 nM YM254890 or 3 μM GF109203X for 30 min prior to pre-treatment with peptide (100 μM), for 30 min, then incubated for a further 30 min with TNFα (10 ng/ml). TNFR1 immuno-precipitates were immuno-blotted for TRADD. Each gel is representative of at least three experiments.

TNFR1/RIP = TNFR1/RIP complex formation (TNFR1 immuno-precipitation, RIP immuno-blot), PAR2 expressing cells; assay type: cell-based, human; conditions: TNFα 10 ng/ml 30 min, versus basal
Procedure: as §2
Proteins were separated by 10% SDS–PAGE and transferred onto nitrocellulose. The membranes were blocked for non-specific binding for 2 h in 2% BSA (w/v) diluted in NATT buffer (50 mM Tris–HCl, 150 mM NaCl, 0.2% (v/v) Tween-20). […]
as §5, with “Lysates were recovered by sequential washes in solubilisation buffer and in the same buffer lacking detergents.” left out, “blotting. […]” for “blotting.”

ERK = ERK activation, PAR2 NCTC2544 cells; assay type: cell-based, human; conditions: response to TNFα; data not shown
Procedure: as §2

JNK = assay: TNFα-stimulated JNK phosphorylation and activity, PAR2 NCTC2544 cells; assay type: cell-based, human; conditions: TNFα 10 ng/ml 30 min, untreated cells
Procedure: as §2, §4
To measure JNK activity, cells were stimulated as appropriate and the reaction terminated by rapid aspiration and the addition of ice-cold PBS. […] Phosphorylation of GST-c-Jun was then determined by autoradiography.
Fig. 6 Gq/11 is essential for PAR2 mediated inhibition of JNK activation by TNFα. […] Samples were assessed for phospho-JNK levels (Panels A and D) or JNK activity (Panel B) as outlined in the Methods section. Gels from JNK activity assays were quantified by densitometry (Panel C). […]

Molecule: CC(C)NCC(O)COc1cccc2ccccc12 (stereo not drawn) [propranolol]
- cAMP accumulation, functional behaviour (β2 [1]): inverse agonist
- ERK activation, functional behaviour (β2 [2]): partial agonist

Molecule: trypsin
- effect on TNFα-stimulated JNK activity (human PAR2 [3]): strongly inhibited both the phosphorylation and activity of JNK; also recorded: concentration-dependent inhibition of subsequent TNFα-stimulated JNK activity; also recorded: strongly mediate an inhibition of TNFα mediated JNK signalling
- effect on TNFα-stimulated JNK phosphorylation (human PAR2 [4]): strongly inhibited both the phosphorylation and activity of JNK
- JNK activity on PAR2 activation (human PAR2 [5]): increase in JNK activity

Molecule: tumour necrosis factor-α [TNFα]
- TRADD recovery with TNFR1 on stimulation (TNFR1/TRADD): marked increase in both TRADD and RIP recovery
- RIP recovery with TNFR1 on stimulation (TNFR1/RIP): marked increase in both TRADD and RIP recovery
- ERK activation (ERK): negligible
- TNFα stimulation of JNK phosphorylation and activity (JNK): stimulated JNK phosphorylation and activity as expected
